Values quoted from earlier work, collected in US20240173256A1, “HDL MIMICKING TARGETED DRUG DELIVERY SYSTEM FOR THE TREATMENT OF SOLID TUMORS” (University of North Texas Health Science Center, priority 2022, published 2024).
Like-named read-outs stand apart in the source and are kept apart here.

Experiments:
[1] = rodents
[2] = patients

| Compound | Cardiotoxicity [1] | Incidence of congestive heart failure ([2]; 400 mg/m^2) [%] | Incidence of congestive heart failure ([2]; 550 mg/m^2) [%] | Incidence of congestive heart failure ([2]; 700 mg/m^2) [%] |
| --- | --- | --- | --- | --- |
| COc1cccc2c1C(=O)c1c(O)c3c(c(O)c1C2=O)C[C@@](O)(C(=O)CO)C[C@@H]3O[C@H]1C[C@H](N)[C@H](O)[C@H](C)O1 [doxorubicin] | ventricular damage proportionate to dosage | 4.7 | 26 | 48 |
| CCCCC(=O)OCC(=O)[C@]1(O)Cc2c(O)c3c(c(O)c2[C@@H](O[C@H]2C[C@H](NCc4ccccc4)[C@H](O)[C@H](C)O2)C1)C(=O)c1c(OC)cccc1C3=O [AD 198, N-Benzyladriamycin-14-valerate] | no significant cardiotoxicity |  |  |  |
